Measurements taken from paper PMC6989399, “A drug library screen identifies Carbenoxolone as novel FOXO inhibitor that overcomes FOXO3-mediated chemoprotection in high-stage neuroblastoma” (Oncogene, 2019).
One block for each molecule: values may come before it.

Experiments:
FOXO4-DBD = FOXO4-DBD (Homo sapiens, UniProt P98177); assay: competitive fluorescence polarization (displacement of IRE-FAM oligonucleotide), […] CBX; type: binding
FOXO3-DBD [1] = target: FOXO3-DBD (Homo sapiens, UniProt O43524); assay: competitive fluorescence polarization (displacement of IRE-FAM oligonucleotide), confirmed by FAM-EMSA; type: binding
Chain of FOXO3-DBD (Homo sapiens, UniProt O43524) (O43524 156-269): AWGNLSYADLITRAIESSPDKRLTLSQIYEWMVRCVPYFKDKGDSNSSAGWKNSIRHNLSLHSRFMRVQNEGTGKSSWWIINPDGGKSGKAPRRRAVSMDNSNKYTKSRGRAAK

FOXO6-DBD = FOXO6-DBD (Homo sapiens, UniProt A8MYZ6); assay: competitive fluorescence polarization (displacement of IRE-FAM oligonucleotide), […] CBX; type: binding
Chain of FOXO6-DBD (A8MYZ6 87-200): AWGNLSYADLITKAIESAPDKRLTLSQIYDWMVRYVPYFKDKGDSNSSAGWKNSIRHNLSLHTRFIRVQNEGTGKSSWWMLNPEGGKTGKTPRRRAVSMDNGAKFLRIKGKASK

FOXO3-DBD [2] = target: T1, FOXO3-DBD (Homo sapiens, UniProt O43524 156-269); assay: fluorescence polarization; 5 nM IRE-FAM, 1-350 nM protein; FPA: 200 mM Tris pH 7.5, 100 mM NaCl, 1 mM EDTA (BSA-precoated plates), 30 min RT (15 C, uncoated for FOXO1/3/4/6 comparison); FAM-EMSA: 20 mM Tris pH 7.5, 100; conditions: protein: recombinant; tags: N-terminal GST; His (GST-His-purified); blunt
T1 sequence (O43524 156-269): as the sequence (O43524 156-269) above

FOXO3-DBD [3] = target: T1, FOXO3-DBD; assay: EMSA; 1 uM protein, 100 nM DNA; FPA: 200 mM Tris pH 7.5, 100 mM NaCl, 1 mM EDTA (BSA-precoated plates), 30 min RT (15 C, uncoated for FOXO1/3/4/6 comparison); FAM-EMSA: 20 mM Tris pH 7.5, 100; conditions: protein: recombinant; tags: N-terminal GST; His (GST-His-purified); blunt

Chain of FOXO4-DBD (P98177 82-207): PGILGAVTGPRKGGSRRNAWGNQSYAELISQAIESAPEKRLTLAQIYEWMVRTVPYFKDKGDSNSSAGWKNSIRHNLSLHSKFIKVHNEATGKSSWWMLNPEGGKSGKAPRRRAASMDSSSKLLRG

Ki (FOXO3-DBD [1]): 19 µM
Molecule: CC1(C)[C@@H](OC(=O)CCC(=O)O)CC[C@]2(C)[C@H]3C(=O)C=C4[C@@H]5C[C@@](C)(C(=O)O)CC[C@]5(C)CC[C@@]4(C)[C@]3(C)CC[C@@H]12 [CBX, Carbenoxolone]
competitive fluorescence polarization (displacement of IRE-FAM oligonucleotide), (FOXO4-DBD): CBX binds in addition to the FOXO3-DBD, also the FOXO1-DBD, the FOXO4-DBD, as well as the FOXO6-DBD | competitive fluorescence polarization (displacement of IRE-FAM oligonucleotide), (FOXO6-DBD): CBX binds in addition to the FOXO3-DBD, also the FOXO1-DBD, the FOXO4-DBD, as well as the FOXO6-DBD

B1: IRE-FAM (dsDNA)
DNA 1: CTATCAAAACAACGC
DNA 2: GCGTTGTTTTGATAG
Kd (FOXO3-DBD [2]): 0.0534 µM

B2: FoxP3-FAM (dsDNA)
DNA 1: AGCAAAGTTGTTTTTGATAATG
DNA 2: CATTATCAAAAACAACTTTGCT
binding result (FOXO3-DBD [3]): binds
